24 compounds from US12600728B2, “Interleukin-17 inhibitors” (priority 2020, dated 2026) can be followed below.

The target in assay [1] is biotinylated human IL-17A / AF647-labeled human IL-17RA (Homo sapiens, UniProt Q16552). The experiment in a line: Human IL-17A×IL-17RA TR-FRET assay. The conditions noted are these: biotinylated human IL-17A 5 nM, AF647-labeled human IL-17RA 30 nM. The assay is classed as binding. The procedure, abridged: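 Compounds tested in duplicate at each concentration; neutral controls contain all components with DMSO in place of compound.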
Chain of biotinylated human IL-17A / AF647-labeled human IL-17RA (Q16552 24-155): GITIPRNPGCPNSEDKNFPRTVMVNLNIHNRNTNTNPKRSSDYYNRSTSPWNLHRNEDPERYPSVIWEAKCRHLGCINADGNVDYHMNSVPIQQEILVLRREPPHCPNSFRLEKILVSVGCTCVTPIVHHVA
A general note: TR-FRET usually uses a lanthanide donor and a delayed reading to cut background.

Assay [2] has as its target recombinant human IL-17AA (Homo sapiens, UniProt Q16552). The experiment in a line: IL-6 release from NHDF cells, IL-17AA plus TNF-α stimulation. In kind it is cell-based. The conditions noted are these: IL-17AA 30 pM plus TNF-α 6 pM, 24 hours, IL-6 by ELISA. Put shortly: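 IL-17-specific IL-6 release from NHDF cells adhered overnight; compounds pre-incubated 30 min at room temperature with human IL-17AA plus TNF-α, then 24 h on cells at 37° C. Final DMSO 0.1% or plasma 20%; IL-6 by ELISA (450 nm). TNF-α-only IL-6 subtracted before IC50 fit.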
(In general: ELISA stands for enzyme-linked immunosorbent assay.)

The mark [3] stands for this setting: TR-FRET, read-out: IL17AA FRET/ IL17Rawt IC50.
The mark [4] stands for this setting: NHDF cells, read-out: IL17AA + TNF IC50 IL-6.
[5] abbreviates: IL17AA FRET/ IL17Rawt IC50, TR-FRET.
Setting [6] is: IL17AA + TNF IC50 IL-6, NHDF cells.

Where two headings read alike, the source gives them in different places.

Chain of recombinant human IL-17AA (Q16552 24-155): as above

Take `Cc1nocc1C(=O)NC(C(=O)Nc1ccc(-c2c(Cl)cc[n+]([O-])c2C)cc1)C1CC2CC2C1` (stereo not drawn) [Example 71, 3-(4-(2-(bicyclo[3.1.0]hexan-3-yl)-2-(3-methylisoxazole-4-carboxamido)acetamido)phenyl)-4-chloro-2-methylpyridine 1-oxide]: the figures for the IC50 in assay [1] (setting [3]) and in assay [2] (setting [4]) were 86 nM and 35 nM, respectively.
Turning to `Cc1cc[n+]([O-])c(C)c1-c1ccc(NC(=O)[C@H](Cc2ccccc2F)NC(=O)c2conc2C)cc1` [Example 72, (S)-3-(4-(3-(2-fluorophenyl)-2-(3-methylisoxazole-4-carboxamido)propanamido)phenyl)-2,4-dimethylpyridine 1-oxide], the IC50 came out at 454 nM in assay [1] (setting [3]) and 3400 nM in assay [2] (setting [4]).
The like results for `Cc1cc[n+]([O-])c(C)c1-c1ccc(NC(=O)[C@H](Cc2ccccc2)NC(=O)c2conc2C)cc1` [Example 74, (S)-2,4-dimethyl-3-(4-(2-(3-methylisoxazole-4-carboxamido)-3-phenylpropanamido)phenyl)pyridine 1-oxide] were, in that order, 1530 nM and greater than 10000 nM.
As for `Cc1cc[n+]([O-])c(C)c1-c1ccc(NC(=O)[C@H](Cc2ccccc2)NC(=O)c2ccnn2C)cc1` [Example 75, (S)-2,4-dimethyl-3-(4-(2-(1-methyl-1H-pyrazole-5-carboxamido)-3-phenylpropanamido)phenyl)pyridine 1-oxide], the figures for the IC50 in assay [1] (setting [3]) and in assay [2] (setting [4]) were 2640 nM and greater than 10000 nM, respectively.
`Cc1c(-c2ccc(NC(=O)[C@@H](NC(=O)c3ccnn3CCN(C)C)C3CCCCC3)cc2F)c(Cl)cc[n+]1[O-]` [Example 77, 4-chloro-3-(4-((S)-2-cyclohexyl-2-(1-(2-(dimethylamino)ethyl)-1H-pyrazole-5-carboxamido)acetamido)-2-fluorophenyl)-2-methylpyridine 1-oxide]: the IC50 came to 436 nM in assay [1] (setting [3]) and 151 nM in assay [2] (setting [4]).
With `Cc1c(-c2ccc(NC(=O)[C@@H](NC(=O)c3ccnn3C(C)C)C3CCCCC3)cc2F)ccc[n+]1[O-]` [Example 82, (S)-3-(4-(2-cyclohexyl-2-(1-isopropyl-1H-pyrazole-5-carboxamido)acetamido)-2-fluorophenyl)-2-methylpyridine 1-oxide], the figures for the IC50 in assay [1] (setting [3]) and in assay [2] (setting [4]) were 85 nM and 35 nM, respectively.
As to `Cc1cc[n+]([O-])c(C)c1-c1ccc(NC(=O)C(NC(=O)c2ccnn2C)C2CCC(C)CC2)cc1F` [Example 84, 3-(2-fluoro-4-((S)-2-(1-methyl-1H-pyrazole-5-carboxamido)-2-((1r,4S)-4-methylcyclohexyl)acetamido)phenyl)-2,4-dimethylpyridine 1-oxide], the IC50 in assay [1] (setting [5]) stood at 14 nM; in assay [2] (setting [6]), 8 nM.
Consider `Cc1cc[n+]([O-])c(C)c1-c1ccc(NC(=O)[C@@H](NC(=O)c2ccnn2C)C2CCC(F)(F)C2)cc1` (stereo partly drawn) [Example 87, 3-(4-((2S)-2-(3,3-difluorocyclopentyl)-2-(1-methyl-1H-pyrazole-5-carboxamido)acetamido)phenyl)-2,4-dimethylpyridine 1-oxide], for which the IC50 in assay [1] (setting [3]) is 489 nM; in assay [2] (setting [4]), 504 nM.
The like results for `Cc1cc[n+]([O-])c(Cl)c1-c1ccc(NC(=O)[C@@H](NC(=O)c2ccnn2C)C2CCCCC2)cc1` [Example 89, (S)-2-chloro-3-(4-(2-cyclohexyl-2-(1-methyl-1H-pyrazole-5-carboxamido)acetamido)phenyl)-4-methylpyridine 1-oxide] were, in that order, 286 nM and 83 nM.
Turning to `COCc1nocc1C(=O)N[C@H](C(=O)Nc1ccc(-c2c(Cl)cc[n+]([O-])c2C)c(F)c1)C1CCCCC1` [Example 90, 4-chloro-3-(4-((S)-2-cyclohexyl-2-(3-(methoxymethyl)isoxazole-4-carboxamido)acetamido)-2-fluorophenyl)-2-methylpyridine 1-oxide], the results for the IC50 in assay [1] (setting [3]) and in assay [2] (setting [4]) were 65 nM and 5 nM, respectively.
With `Cc1cc[n+]([O-])c(C)c1-c1ccc(NC(=O)C(NC(=O)c2ccnn2C)C2CCC(C(F)(F)F)CC2)cc1F` [Example 91, 3-(2-fluoro-4-((S)-2-(1-methyl-1H-pyrazole-5-carboxamido)-2-((1r,4S)-4-(trifluoromethyl)cyclohexyl)acetamido)phenyl)-2,4-dimethylpyridine 1-oxide], the IC50 in assay [1] (setting [5]) was 134 nM; in assay [2] (setting [6]) it was 39 nM.
Regarding `Cc1c(-c2ccc(NC(=O)[C@@H](NC(=O)c3ccnn3C)C3CCCCC3)cc2F)cc(Cl)c[n+]1[O-]` [Example 92, (S)-5-chloro-3-(4-(2-cyclohexyl-2-(1-methyl-1H-pyrazole-5-carboxamido)acetamido)-2-fluorophenyl)-2-methylpyridine 1-oxide], the IC50 stood at 372 nM in assay [1] (setting [3]) and 28 nM in assay [2] (setting [4]).
On to `Cn1nccc1C(=O)N[C@H](C(=O)Nc1ccc(-c2c[n+]([O-])ccc2Cl)c(F)c1)C1CCCCC1` [Example 93, (S)-4-chloro-3-(4-(2-cyclohexyl-2-(1-methyl-1H-pyrazole-5-carboxamido)acetamido)-2-fluorophenyl)pyridine 1-oxide], for which the IC50 in assay [1] (setting [3]) was determined as 601 nM; in assay [2] (setting [4]), 58 nM.
On to `Cc1cc[n+]([O-])c(C)c1-c1ccc(NC(=O)[C@@H](NC(=O)c2ccnn2C2CC2)C2CCCCC2)cc1` [Example 94, (S)-3-(4-(2-cyclohexyl-2-(1-cyclopropyl-1H-pyrazole-5-carboxamido)acetamido)phenyl)-2,4-dimethylpyridine 1-oxide], for which the IC50 in assay [1] (setting [3]) came to 128 nM; in assay [2] (setting [4]) it was 47 nM.
Regarding `Cc1cc[n+]([O-])c(C)c1-c1ccc(NC(=O)[C@@H](NC(=O)c2ccnn2C)C2CCCCC2)cc1F` [Example 95, 3-(4-((S)-2-cyclohexyl-2-(1-methyl-1H-pyrazole-5-carboxamido)acetamido)-2-fluorophenyl)-2,4-dimethylpyridine 1-oxide], the values for the IC50 in assay [1] (setting [3]) and in assay [2] (setting [4]) were 125 nM and 19 nM, respectively.
For `Cc1cc[n+]([O-])c(C)c1-c1ccc(NC(=O)[C@@H](NC(=O)c2ccnn2C(C)C)C2CCCCC2)cc1F` [Example 96, 3-(4-((S)-2-cyclohexyl-2-(1-isopropyl-1H-pyrazole-5-carboxamido)acetamido)-2-fluorophenyl)-2,4-dimethylpyridine 1-oxide], the figures for the IC50 in assay [1] (setting [3]) and in assay [2] (setting [4]) were 70 nM and 7 nM, respectively.
On the same counts, the results for `Cc1c[n+]([O-])cc(C)c1-c1ccc(NC(=O)[C@@H](NC(=O)c2ccnn2C)C2CCCCCC2)cc1` [Example 99, (S)-4-(4-(2-cycloheptyl-2-(1-methyl-1H-pyrazole-5-carboxamido)acetamido)phenyl)-3,5-dimethylpyridine 1-oxide] are 208 nM and 81 nM.
The like results for `Cc1c[n+]([O-])cc(C)c1-c1ccc(NC(=O)[C@@H](NC(=O)c2ccnn2C2CC2)C2CCCCCC2)cc1` [Example 100, (S)-4-(4-(2-cycloheptyl-2-(1-cyclopropyl-1H-pyrazole-5-carboxamido)acetamido)phenyl)-3,5-dimethylpyridine 1-oxide] were, in that order, 243 nM and 46 nM.
Turning to `Cc1c[n+]([O-])cc(C)c1-c1ccc(NC(=O)[C@@H](NC(=O)c2ccnn2C(C)C)C2CCCCCC2)cc1` [Example 101, (S)-4-(4-(2-cycloheptyl-2-(1-isopropyl-1H-pyrazole-5-carboxamido)acetamido)phenyl)-3,5-dimethylpyridine 1-oxide], the IC50 in assay [1] (setting [3]) is 85 nM; in assay [2] (setting [4]), 22 nM.
On the same counts, the results for `Cc1c[n+]([O-])cc(C)c1-c1ccc(NC(=O)[C@@H](NC(=O)c2ccnn2C2CCC2)C2CCCCCC2)cc1` [Example 102, (S)-4-(4-(2-(1-cyclobutyl-1H-pyrazole-5-carboxamido)-2-cycloheptylacetamido)phenyl)-3,5-dimethylpyridine 1-oxide] are 123 nM and 17 nM.
In the case of `Cc1c[n+]([O-])cc(C)c1-c1ccc(NC(=O)[C@@H](NC(=O)c2ccnn2C)[C@H]2CCc3ccccc3C2)cc1` [Example 103, 3,5-dimethyl-4-(4-((S)-2-(1-methyl-1H-pyrazole-5-carboxamido)-2-((S)-1,2,3,4-tetrahydronaphthalen-2-yl)acetamido)phenyl)pyridine 1-oxide], the figures for the IC50 in assay [1] (setting [3]) and in assay [2] (setting [4]) were 72 nM and 45 nM, respectively.
As to `Cc1cc[n+]([O-])c(C(F)F)c1-c1ccc(NC(=O)[C@@H](NC(=O)c2ccnn2C)C2CCCCC2)cc1` [Example 104, (S)-3-(4-(2-cyclohexyl-2-(1-methyl-1H-pyrazole-5-carboxamido)acetamido)phenyl)-2-(difluoromethyl)-4-methylpyridine 1-oxide], the values for the IC50 in assay [1] (setting [3]) and in assay [2] (setting [4]) were 1600 nM and 139 nM, respectively.
Regarding `Cc1nocc1C(=O)N[C@H](C(=O)Nc1ccc(-c2c(Cl)cc[n+]([O-])c2C)c(F)c1)C1CCC(F)(F)CC1` [Example 106, 4-chloro-3-(4-((S)-2-(4,4-difluorocyclohexyl)-2-(3-methylisoxazole-4-carboxamido)acetamido)-2-fluorophenyl)-2-methylpyridine 1-oxide], the IC50 in assay [1] (setting [3]) came out at 50 nM; in assay [2] (setting [4]), 18 nM.
On the same counts, the results for `Cc1c(-c2ccc(NC(=O)[C@@H](NC(=O)c3ccnn3C)C3CCC(F)(F)CC3)cc2F)c(Cl)cc[n+]1[O-]` [Example 107, 4-chloro-3-(4-((S)-2-(4,4-difluorocyclohexyl)-2-(1-methyl-1H-pyrazole-5-carboxamido)acetamido)-2-fluorophenyl)-2-methylpyridine 1-oxide] are 19 nM and 15 nM.
